Laboratory results as given in patent US12319709B2, “Diaryl trehalose compounds and uses thereof” (THE UNIVERSITY OF MONTANA, priority 2018, dated 2025).

What was measured:
RAW264.7 cells = assay: Cytokine (TNFα) response of mouse macrophage cell line; Table 2 'Murine'; assay type: cell-based; parameters: Maximum cytokine response Murine: unit not given here; settings: NR = no response
Description: Compounds were also tested in a mouse macrophage cell line (FIG. 4B). RAW264.7 cells were subjected to increasing concentrations of the compounds and assessed for production of the cytokine TNFα.

[1] = tested on: peripheral blood mononuclear cells (PBMCs); assay: IL-6 induction in fresh human PBMCs; assay type: cell-based; settings: for Maximum cytokine response h-IL-6 / Minimal Effective Concentration h-IL-6: human IL-6, NR = no response
Description: (§1) Tumor necrosis factor alpha (TNFα) and IL-6 production in peripheral blood mononuclear cells (PBMCs) was measured after exposure to various concentrations of the DAT compounds synthesized as shown above. Initial studies focused on two different methods of delivery of the DAT compounds to PBMC cultures. In the first delivery method, the indicated derivative compound was dissolved in isopropanol, serially diluted, and then dried to the bottom of a tissue culture plate. In the second delivery method, the indicated derivative compound was dissolved in DMSO and serially diluted into tissue culture media. In each method, PBMCs were added to the compounds and incubated at 37° C. TNFα (FIG. 1A) and IL-6 (FIG. 1B) were measured after 18-24 hours after treatment by ELISA assay.
The isolated PBMCs were exposed to increasing concentrations of the indicated compounds resuspended in DMSO and serially diluted in media. IL-6 levels were determined from supernatants eighteen hours after treatment (FIG. 3).

[2] = tested on: peripheral blood mononuclear cells (PBMCs); assay: Cytokine analysis of supernatants of stimulated, freshly prepared PBMCs; assay type: cell-based, human; settings: compounds solubilized in DMSO
Description: as §1
Supernatants from the freshly prepared PBMCs stimulated with DAT compounds solubilized in DMSO (Example 5A) were analyzed for the cytokines that help drive Th1 cell or Th17 cell adaptive immune responses; IFNγ, IL-12 p70, IL-6, IL-1β, and IL-23. Minimal amounts of IL-12p70 were detected and IFNγ was undetectable. Therefore, both are not reported.

| SMILES | Maximum cytokine response Murine (RAW264.7 cells; listed as 1015) | Minimal Effective Concentration Murine (RAW264.7 cells; listed as 1015) | IL-6 production / activity in fresh PBMCs from multiple donors (in words) ([1]; compounds in DMSO serially diluted in media, supernatants 18 h after treatment) | Maximum cytokine response h-IL-6 [1] | Minimal Effective Concentration h-IL-6 [1] | TNFα response in PBMCs (in words) [2] | Maximum cytokine response Murine (RAW264.7 cells) | Minimal Effective Concentration Murine (RAW264.7 cells) |
| --- | --- | --- | --- | --- | --- | --- | --- | --- |
| COc1cc(OC)cc(C(=O)OC[C@H]2O[C@H](O[C@H]3O[C@H](COC(=O)c4cc(OC)cc(OC)c4)[C@@H](O)[C@H](O)[C@H]3O)[C@H](O)[C@@H](O)[C@@H]2O)c1 [UM1015, 6,6′-bis-(3,5-dimethoxybenzoate)-α,α-trehalose] | 3.5 | 12.3 µM | potent, robust activity in only 3 of 5 donors | 3.6 OD | 111 µM | higher responding | – | – |
| COc1ccc(/C=C/C(=O)OC[C@H]2O[C@H](O[C@H]3O[C@H](COC(=O)/C=C/c4ccc(OC)c(OC)c4)[C@@H](O)[C@H](O)[C@H]3O)[C@H](O)[C@@H](O)[C@@H]2O)cc1OC [UM1019] | – | – | – | 2 OD | 333 µM | higher responding | 2.3 | 111 µM |
| O=C(OC[C@H]1O[C@H](O[C@H]2O[C@H](COC(=O)c3ccc(C(F)(F)F)cc3C(F)(F)F)[C@@H](O)[C@H](O)[C@H]2O)[C@H](O)[C@@H](O)[C@@H]1O)c1ccc(C(F)(F)F)cc1C(F)(F)F [UM1084] | – | – | – | 3 OD | 100 µM | – | 2.9 | 33 µM |
| Cc1ccc(C(=O)OC[C@H]2O[C@H](O[C@H]3O[C@H](COC(=O)c4ccc(C)cc4C(F)(F)F)[C@@H](O)[C@H](O)[C@H]3O)[C@H](O)[C@@H](O)[C@@H]2O)c(C(F)(F)F)c1 [UM1085] | – | – | – | 3 OD | 100 µM | – | 2.2 | 33 µM |
| CC(C)(C)c1cc(CCC(=O)OC[C@H]2O[C@H](O[C@H]3O[C@H](COC(=O)CCc4cc(C(C)(C)C)c(O)c(C(C)(C)C)c4)[C@@H](O)[C@H](O)[C@H]3O)[C@H](O)[C@@H](O)[C@@H]2O)cc(C(C)(C)C)c1O [UM1086] | – | – | – | 3 OD | 33.3 µM | – | 3 | 0.13 µM |
| CC(C)(C)c1cc(C(=O)OC[C@H]2O[C@H](O[C@H]3O[C@H](COC(=O)c4cc(C(C)(C)C)c(O)c(C(C)(C)C)c4)[C@@H](O)[C@H](O)[C@H]3O)[C@H](O)[C@@H](O)[C@@H]2O)cc(C(C)(C)C)c1O [UM1087] | – | – | – | 3 OD | 33.3 µM | – | 3 | 0.13 µM |
| CC(C)(C)c1cc(C(=O)NC[C@H]2O[C@H](O[C@H]3O[C@H](CNC(=O)c4cc(C(C)(C)C)cc(C(C)(C)C)c4O)[C@@H](O)[C@H](O)[C@H]3O)[C@H](O)[C@@H](O)[C@@H]2O)c(O)c(C(C)(C)C)c1 [UM1088] | – | – | – | 3.5 OD | 2.5 µM | – | 1.3 | 0.4 µM |
| CCCCCCOc1cc(OCCCCCC)cc(C(=O)OC[C@H]2O[C@H](O[C@H]3O[C@H](COC(=O)c4cc(OCCCCCC)cc(OCCCCCC)c4)[C@@H](O)[C@H](O)[C@H]3O)[C@H](O)[C@@H](O)[C@@H]2O)c1 [UM1092] | – | – | – | 3.3 OD | 3.7 µM | – | <.001 | 3.4 µM |
| CCCCCCCCOc1cc(OCCCCCCCC)cc(C(=O)OC[C@H]2O[C@H](O[C@H]3O[C@H](COC(=O)c4cc(OCCCCCCCC)cc(OCCCCCCCC)c4)[C@@H](O)[C@H](O)[C@H]3O)[C@H](O)[C@@H](O)[C@@H]2O)c1 [UM1093] | – | – | – | 3.4 OD | 1.2 µM | – | <.001 | 3.4 µM |
| CCCCCCCCCCOc1cc(OCCCCCCCCCC)cc(C(=O)OC[C@H]2O[C@H](O[C@H]3O[C@H](COC(=O)c4cc(OCCCCCCCCCC)cc(OCCCCCCCCCC)c4)[C@@H](O)[C@H](O)[C@H]3O)[C@H](O)[C@@H](O)[C@@H]2O)c1 [UM1094] | – | – | – | 3.4 OD | 1.2 µM | – | <.001 | 3.4 µM |
| CCCOc1cc(C(=O)OC[C@H]2O[C@H](O[C@H]3O[C@H](COC(=O)c4cc(OCCC)c(OCCC)c(OCCC)c4)[C@@H](O)[C@H](O)[C@H]3O)[C@H](O)[C@@H](O)[C@@H]2O)cc(OCCC)c1OCCC [UM1095] | – | – | – | 3.3 OD | 3.7 µM | – | 0.001 | 3.4 µM |
| CCCCOc1cc(C(=O)OC[C@H]2O[C@H](O[C@H]3O[C@H](COC(=O)c4cc(OCCCC)c(OCCCC)c(OCCCC)c4)[C@@H](O)[C@H](O)[C@H]3O)[C@H](O)[C@@H](O)[C@@H]2O)cc(OCCCC)c1OCCCC [UM1096] | – | – | – | 3.2 OD | 2.5 µM | – | 0.005 | 3 µM |
| CCCCCCOc1cc(C(=O)OC[C@H]2O[C@H](O[C@H]3O[C@H](COC(=O)c4cc(OCCCCCC)c(OCCCCCC)c(OCCCCCC)c4)[C@@H](O)[C@H](O)[C@H]3O)[C@H](O)[C@@H](O)[C@@H]2O)cc(OCCCCCC)c1OCCCCCC [UM1097] | – | – | – | 3.3 OD | 3.7 µM | – | 0.005 | 3.4 µM |
| CCCCCCCCOc1cc(C(=O)OC[C@H]2O[C@H](O[C@H]3O[C@H](COC(=O)c4cc(OCCCCCCCC)c(OCCCCCCCC)c(OCCCCCCCC)c4)[C@@H](O)[C@H](O)[C@H]3O)[C@H](O)[C@@H](O)[C@@H]2O)cc(OCCCCCCCC)c1OCCCCCCCC [UM1098] | – | – | – | 3.4 OD | 11 µM | – | 0.04 | 3.4 µM |
| CCCCCCCCCCOc1cc(C(=O)OC[C@H]2O[C@H](O[C@H]3O[C@H](COC(=O)c4cc(OCCCCCCCCCC)c(OCCCCCCCCCC)c(OCCCCCCCCCC)c4)[C@@H](O)[C@H](O)[C@H]3O)[C@H](O)[C@@H](O)[C@@H]2O)cc(OCCCCCCCCCC)c1OCCCCCCCCCC [UM1099] | – | – | – | 3.2 OD | 11 µM | – | 0.005 | 3.4 µM |
| CCOc1cc(C(=O)NC[C@H]2O[C@H](O[C@H]3O[C@H](CNC(=O)c4cc(OCC)c(OCC)c(OCC)c4)[C@@H](O)[C@H](O)[C@H]3O)[C@H](O)[C@@H](O)[C@@H]2O)cc(OCC)c1OCC [UM1110] | – | – | – | 1 OD | 100 µM | – | 11 | 2.5 µM |
| CCCCCOc1cc(OCCCCC)cc(C(=O)NC[C@H]2O[C@H](O[C@H]3O[C@H](CNC(=O)c4cc(OCCCCC)cc(OCCCCC)c4)[C@@H](O)[C@H](O)[C@H]3O)[C@H](O)[C@@H](O)[C@@H]2O)c1 [UM1111] | – | – | – | 2.5 OD | 33.3 µM | – | 0.13 | 3.3 µM |
| Cc1cc(C(C)(C)C)cc(C)c1C(=O)OC[C@H]1O[C@H](O[C@H]2O[C@H](COC(=O)c3c(C)cc(C(C)(C)C)cc3C)[C@@H](O)[C@H](O)[C@H]2O)[C@H](O)[C@@H](O)[C@@H]1O [UM1116] | – | – | – | 2.3 OD | 100 µM | – | 0.005 | 3 µM |
| CC(C)(C)CC(C)(C)c1ccc(O)c(C(=O)OC[C@H]2O[C@H](O[C@H]3O[C@H](COC(=O)c4cc(C(C)(C)CC(C)(C)C)ccc4O)[C@@H](O)[C@H](O)[C@H]3O)[C@H](O)[C@@H](O)[C@@H]2O)c1 [UM1117] | – | – | – | 9 OD | 33.3 µM | – | 11 | 3 µM |
| CCOc1cc(C(=O)OC[C@H]2O[C@H](O[C@H]3O[C@H](CO)[C@@H](O)[C@H](O)[C@H]3O)[C@H](O)[C@@H](O)[C@@H]2O)cc(OCC)c1OCC [UM1120] | – | – | – | 0.3 OD | 100 µM | – | 11 | 2.5 µM |
| CC(C)(C)c1cc(C(=O)NC[C@H]2O[C@H](O[C@H]3O[C@H](CNC(=O)c4cc(C(C)(C)C)cc(C(C)(C)C)c4)[C@@H](O)[C@H](O)[C@H]3O)[C@H](O)[C@@H](O)[C@@H]2O)cc(C(C)(C)C)c1 [UM1123] | – | – | – | 2.7 OD | 33.3 µM | – | 0.13 | 3.3 µM |
